“Also recorded” adds a separate entry of the source.
Tests used:
[1] = tested on: immune-resistant autochthonous melanoma tumors (TiRP); test: TiRP melanoma with adoptive cell transfer (ACT) of P1A-specific CD8+T cells; type: in vivo, TiRP mice
Text: TiRP mice have been created by crossing Ink4a/Are^flox/flox mice with mice carrying a transgenic construct controlled by the tyrosinase promoter and driving the expression of H-Ras ^12V and Trapl a which encodes a MAGE-type tumor antigen P1A; the promoter is separated from the coding region by a stop cassette made of a floxed self-deleting CreER (Huijbers et al., 2006, Cancer Res 66, 3278-3286). Those mice were backcrossed to a B10.D2 background and bred to homozygosity. TCRP1A mice heterozygous for the H-2Ld/P1A35-43-specific TCR transgene were kept on the B10.D2;Rag1^−/− background (Shanker et al., 2004, J Immunol 172, 5069-5077). BALB/c mice were used in tumor transplantation experiments. TiRP-derived T429.11 transplanted melanoma model: T429.11 clone was derived from an induced Amela TiRP tumor referred to as T429. It was cloned from the T429 induced melanoma primary tumor line. Two million of T429.11 tumor cells were injected subcutaneously into recipient mice for tumor establishment (Zhu et al., 2017, Nat Commun. 10; 8(1):1404). Adra2a tm1Bkk mice (Strain Name: B6.129-Adra2a tm1Bkk /J, # 004367) were obtained from Jackson Laboratory (Bar Harbor, Me., USA).
(§1) A fresh solution of 40H-Tamoxifen was prepared by dissolving 40H-Tamoxifen (Imaginechem®) in 100% ethanol and mineral oil (ratio 1:9) followed by 30 min sonication, and injected subcutaneously (2 mg/200 uL per mouse) in the neck area of gender-matched 7 weeks old TiRP mice. Tumor appearance was monitored daily and tumors were measured three times/week. Tumor volume (in mm^3) was calculated by the following formula: Volume=width^2×length/2.
For the adoptive cell transfer (ACT), P1A-specific (TCRP1A) CD8+T cells were isolated from spleens and lymph nodes of TCRP1A mice as described hereinabove, and stimulated in vitro by co-culture with irradiated (10,000 rads) L1210.P1A.B7-1 cells (Gajewski et al., 1995, J Immunol 154, 5637-5648) at 1:2 ratio (0.5×10^5 CD8+T cells and 10^5 L1210.P1A.B7-1 cells per well in 48-well plates) in IMDM (GIBCO®) containing 10% fetal bovine serum supplemented with L-arginine (0.55 mM, Merck®), L-asparagine (0.24 mM, Merck®), glutamine (1.5 mM, Merck®), beta-mercaptoethanol (50 μM, Sigma Aldrich®), 50 U mL^−1 penicillin and […] mL^−1 streptomycin (Life Technologies®). Four days later, TCRP1A CD8+T cells were purified on a Lymphoprep gradient (StemCell®) and 10^7 living cells were injected intravenously in 200 μL PBS in TiRP-tumor bearing mice on the day of randomization.
TiRP-tumor bearing mice received adoptive cell transfer (ACT) of 10^7 P1A-specific activated CD8+T cells and daily injections of vehicle control, clonidine (5 mg/kg, i.p.), or clonidine (5 mg/kg, i.p.) combined with phentolamine (5 mg/kg, i.p.), when the tumor size was around 500 mm^3, until the day of sacrifice. Tumor size was monitored every 2 days. Mice were sacrificed when the tumor in control group reached around 2,000 mm^3.
TiRP-tumor bearing mice received adoptive cell transfer (ACT) of 10^7 of P1A-specific activated CD8+T cells. Daily injections of 5 mg/kg i.p. of romifidine or clonidine were thus administered from the day of the ACT, when the tumor size was around 500 mm^3, until the day of sacrifice. As shown on FIGS. 5A-B, following romifidine or clonidine administration, tumor infiltration of CD8+T cells was increased. […]

B16F1 melanoma [2] = test: B16F1 melanoma in immune deficient mice; type: in vivo; conditions: B16F1 in immune deficient NSG mice; 5 mg/kg, i.p.
Experimental: (§2) FIGS. 10A-B is a set of curves showing the tumor growth of B16F1 melanoma in C57BL/6J (FIG. 10A) or immunodeficient NSG mice (FIG. 10B) treated with PBS (Control, curve 1) or clonidine (5 mg/kg, i.p., curve 2).
(§3) FIGS. 11A-B is a set of curves showing the tumor growth of B16F1 melanoma in C57BL/6J (FIG. 11A) or NSG mice (FIG. 11B) treated with PBS (Control, curve 1) or guanfacine (5 mg/kg, i.p., curve 2).

B16F1 melanoma [3] = test: B16F1 melanoma in immune competent mice; type: in vivo; conditions: B16F1 in immune competent C57BL/6 mice; 5 mg/kg, i.p.; monotherapy
Experimental: as §2, §3

TiRP melanoma = TiRP melanoma model, monotherapy; type: in vivo; conditions: TiRP+/+ mice; 5 mg/kg, i.p. daily from tumor size around 250 mm^3
Experimental: FIGS. 14A-B is a set of curves showing the tumor growth (melanoma) in TiRP+/+ mice that have received daily injections of guanfacine (5 mg/kg, i.p. triangles; FIG. 14A), clonidine (5 mg/kg, i.p., circles; FIG. 14B), or control (PBS, i.p., squares), when the tumor size was around 250 mm^3 until sacrifice.
TiRP mice have been created by crossing Ink4a/Are^flox/flox mice with mice carrying a transgenic construct controlled by the tyrosinase promoter and driving the expression of H-Ras ^12V and Trapl a which encodes a MAGE-type tumor antigen P1A; the promoter is separated from the coding region by a stop cassette made of a floxed self-deleting CreER (Huijbers et al., 2006, Cancer Res 66, 3278-3286). Those mice were backcrossed to a B10.D2 background and bred to homozygosity. TCRP1A mice heterozygous for the H-2Ld/P1A35-43-specific TCR transgene were kept on the B10.D2;Rag1^−/− background (Shanker et al., 2004, J Immunol 172, 5069-5077). […]
as §1

CT26 colon carcinomas = test: CT26 colon carcinoma model, daily i.p. treatment, tumor volume; type: in vivo, BALB/c mice; conditions: for effect of co-administered antagonist on the inhibition of tumor growth by clonidine / effect of co-administered antagonist on the inhibition of tumor growth by guanabenz: CT26; for effect of co-administered antagonist on the inhibition of tumor growth by clonidine: clonidine 5 mg/kg i.p. plus phentolamine 5 mg/kg, propranolol 5 mg/kg or yohimbine 10 mg/kg i.p. daily; for effect of co-administered antagonist on the inhibition of tumor growth by guanabenz: guanabenz 5 mg/kg i.p. plus phentolamine 5 mg/kg or yohimbine 10 mg/kg i.p. daily
Experimental: Mice received a daily intra-peritoneal injection of guanabenz (5 mg/kg) or vehicle (PBS) from the day of randomization (and the day of ACT when applicable) until the day of sacrifice. For the co-administration of adrenergic receptor agonist and antagonist, BALB/c mice bearing CT26 colon carcinomas received daily injections of vehicle control, guanabenz (5 mg/kg, i.p.), or guanabenz (5 mg/kg, i.p.) plus yohimbine (10 mg/kg, i.p.), when the tumor size was around 50 mm^3, until the day of sacrifice.
[…] mice were injected subcutaneously with 2×10^6 CT26 colon tumor cells at an age of 6 to 8 weeks. […] For evaluation of yohimbine on the effect of clonidine and guanabenz, the mice were randomized into different groups when tumors size arrived around 100 mm^3 and received daily injections of guanabenz (5 mg/kg, i.p.), yohimbine (10 mg/kg), a mix of guanabenz (5 mg/kg, i.p.) and yohimbine (10 mg/kg, i.p.), clonidine (5 mg/kg, i.p.), a mix of clonidine (5 mg/kg, i.p.) and yohimbine (10 mg/kg, i.p.) or vehicle control. Tumor size was measured every 2 days and mice were sacrificed when the tumor in control group reached 1,000 mm^3.

CT26 colon cancer = CT26 colon cancer tumor growth (FIGS. 15-16); type: in vivo, C57BL/6J mice
Text: Tumor infiltration of CD8+cells evaluated at the day of sacrifice by FACS (FIG. 15B). Tumor growth of CT26 colon cancer in NSG mice treated with PBS (Control), clonidine, clonidine mixed with yohimbine, or yohimbine alone (FIG. 15C). FIGS. 16A-C is a set of curves and histograms showing the tumor growth of CT26 colon cancer in C57BL/6J mice treated with PBS (Control, circles), guanabenz (diamonds), guanabenz mixed with yohimbine (light grey inverted triangles), or yohimbine alone (dark grey inverted triangles) (FIG. 16A); the tumor infiltration of CD8+ cells evaluated at the day of sacrifice by FACS (FIG. 16B); and the tumor growth of CT26 colon cancer in NSG mice treated with PBS (Control), guanabenz, guanabenz mixed with yohimbine, or yohimbine alone (FIG. 16C). […] For evaluation of yohimbine on the effect of clonidine and guanabenz, the mice were randomized into different groups when tumors size arrived around 100 mm^3 and received daily injections of guanabenz (5 mg/kg, i.p.), yohimbine (10 mg/kg), a mix of guanabenz (5 mg/kg, i.p.) and yohimbine (10 mg/kg, i.p.), clonidine (5 mg/kg, i.p.), a mix of clonidine (5 mg/kg, i.p.) and yohimbine (10 mg/kg, i.p.) or vehicle control.

human LS411N cancer = test: LS411N xenograft with adoptive transfer of allogeneic human PBMC; type: in vivo; conditions: PBMC, clonidine mixed with yohimbine
Experimental: (§4) Adoptive transfer of human PBMC was performed when tumor size reaches 100 mm^3.

[4] = tested on: human LS411N ovarian cancer; test: as above; type: in vivo
Experimental: as §4

[5] = tested on: JAK2V617F mutated bone marrow; test: Myelofibrosis by JAK2V617F bone marrow transplantation, platelet counts; type: in vivo, mice; conditions: 5 mg/kg daily for three weeks
Experimental: Murine femurs and tibias from JAK2V617F mutant mice were first harvested and cleaned thoroughly. Marrow cells were flushed into PBS with 2% fetal bovine serum using a 25G needle and syringe. Resulting cell suspensions were then filtered through a 40 uM cell strainer. Recipient mice were irradiated with two doses of 500 rad 4 h apart. 1 million of donor cells were injected into wild-type recipients by standard intravenous injection using a 27G insulin syringe. One week after bone marrow transplantation, mice were treated with guanabenz or clonidine at a dose of 5 mg/kg daily for three weeks. After three weeks of treatment, mice were dissected and peripheral blood was drawn by cardiac puncture, the platelet concentration was measured by Cell Counter Analyzer MS9-5V.

MC38 colon carcinomas [6] = test: MC38 colon carcinoma in Adra2a KO mice; type: in vivo, C57BL/6 Adra2a KO mice; conditions: 5 mg/kg, i.p. daily from tumor size around 50 mm^3
Experimental: (§5) C57BL/6 Wildtype or C57BL/6 Adra2a KO mice bearing MC38 colon carcinomas received daily injections of vehicle control (PBS), clonidine (5 mg/kg, i.p.) or guanabenz (5 mg/kg, i.p.), when the tumor size was around 50 mm^3, until the day of sacrifice.

JAK2V617F allele burden = test: Myelofibrosis by JAK2V617F bone marrow transplantation, allele burden; type: in vivo, C57BL/6 mice; conditions: 5 mg/kg i.p. daily; Day 7 versus Day 0
Experimental: Bone marrow from primary CD45.2 JAK2V617F mice was mixed 1:1 with CD45.1 C57BL/6 marrow and transplanted into lethally irradiated CD45.2 C57BL/6 recipients. 1 month after bone marrow transplantation, mice were randomized into three groups and received daily i.p injection of 5 mg/kg of clonidine, guanabenz or PBS. Blood was taken on Day 0 (Just before the treatment) and on Day 7 (7 days after the treatment). The allele burden was assessed as a fraction of CD45.2 cells along total CD45 cells in the blood of mice.
Decreased JAK2V617F allele burden is a golden standard method to evaluate the disease progression of MF.

prostate cancer = test: Xenograft model of prostate cancer in NSG mice treated with PBMC; type: in vivo
MC38 colon carcinomas [7] = test: MC38 colon carcinoma in wildtype mice; type: in vivo, C57BL/6 Wildtype mice; conditions: 5 mg/kg, i.p. daily from tumor size around 50 mm^3
Experimental: as §5

## N=C(N)NC(=O)Cc1c(Cl)cccc1Cl [guanfacine]
[1]; TiRP mice, ACT of 10^7 P1A-specific CD8+T cells, 5 mg/kg i.p. daily
  tumor growth, combined with ACT: inhibited the tumor growth
B16F1 melanoma [2]
  tumor growth: No tumor inhibition was found
B16F1 melanoma [3]
  tumor growth: inhibited tumor growth
TiRP melanoma
  tumor volume, monotherapy: efficient in decreasing the tumor volume

## Fc1cccc(Br)c1NC1=NCCN1 [romifidine]
[1]; TiRP mice with ACT, 5 mg/kg i.p. daily from day of ACT, tumor size around 500 mm^3, 5 mg/kg
  tumor infiltration of CD8+T cells (%CD8+T cells among total CD45+T cells): increase of tumor infiltration of CD8+T cells; also recorded: increased

## COC(=O)[C@@H]1[C@H]2C[C@H]3c4[nH]c5ccccc5c4CCN3C[C@@H]2CC[C@@H]1O [yohimbine]
CT26 colon carcinomas
  effect of co-administered antagonist on the inhibition of tumor growth by clonidine: strongly attenuated; also recorded: reduced the inhibition of tumor growth
  effect of co-administered antagonist on the inhibition of tumor growth by guanabenz: strongly attenuated; also recorded: reduced the inhibition of tumor growth
CT26 colon cancer; CT26, clonidine mixed with yohimbine
  effect of yohimbine on the inhibition of tumor growth by clonidine: strongly attenuated
CT26 colon cancer; CT26, guanabenz mixed with yohimbine
  effect of yohimbine on the inhibition of tumor growth by guanabenz: strongly attenuated
Human LS411N cancer
  effect of yohimbine on the tumor inhibition by clonidine: strongly attenuated
[4]; PBMC, guanabenz mixed with yohimbine
  effect of yohimbine on the tumor inhibition by guanabenz: strongly attenuated

## N=C(N)N/N=C/c1c(Cl)cccc1Cl [guanabenz]
[5]
  platelet (PLT) counts: significantly reduces the platelet (PLT) counts; also recorded: significantly reduced the high platelet counts
MC38 colon carcinomas [6]
  tumor inhibition in Adra2a KO mice: almost completely attenuated
CT26 colon carcinomas; CT26 in BALB/c mice, 5 mg/kg, i.p. daily from tumor size around 50 mm^3 until sacrifice
  tumor growth (tumor volume): promotes a decrease of the tumor volume; also recorded: strongly inhibited CT26 tumor growth
JAK2V617F allele burden
  JAK2V617F allele burden (CD45.2 cells among total CD45 cells in blood): decrease of JAK2V617F allele burden in a number of mice
Prostate cancer
  tumor growth: strong tumor inhibition
CT26 colon cancer; CT26 colon cancer, FIGS. 15A, 16A
  tumor growth: inhibited CT26 colon cancer tumor growth
[4]; human allogenic PBMC transferred at tumor size 100 mm^3
  tumor growth: significant tumor inhibition
MC38 colon carcinomas [7]
  tumor growth: significant tumor inhibition

## Cc1ccc(N(CC2=NCCN2)c2cccc(O)c2)cc1 [Phentolamine]
[1]; ACT, clonidine 5 mg/kg i.p. plus phentolamine 5 mg/kg i.p. daily
  effect of phentolamine on the inhibition of TiRP tumor growth by clonidine: attenuated the inhibitory effect of clonidine on TiRP tumor growth
CT26 colon carcinomas
  effect of co-administered antagonist on the inhibition of tumor growth by clonidine: attenuated the inhibitory effect
  effect of co-administered antagonist on the inhibition of tumor growth by guanabenz: attenuated the inhibitory effect

Source: patent publication US20230165836A1, “ALPHA-2 ADRENERGIC RECEPTOR AGONISTS FOR THE TREATMENT OF CANCER” (UNIVERSITÉ CATHOLIQUE DE LOUVAIN, priority 2020, published 2023)
